{"source": "patent US11186817B2", "about": "“Chemically defined cell culture media additive” (IUCF-HYU (INDUSTRY-UNIVERSITY COOPERATION FOUNDATION …, priority 2014, dated 2021)", "assay_type_in_all_cases": "cell-based, Chinese hamster", "key": {"CHO DG44 cell line [1]": {"tested_on": "CHO DG44 cell line", "test": "Growth of CHO DG44 cell line in commercial chemically defined media with and without THF", "details": "six commercial chemically defined media", "text": "(§1) 1. Cell line and media: CHO DG44 cell line was used as a DHFR-deficient cell line. The cell line was passaged 80 times or more and suspension adapted in HY-CDM (in-house) media as chemically defined media. The suspension-adapted cell line was used to evaluate the influence of tetrahydrofolate (THF) and dihydrofolate (DHF) and the growth characteristics in commercial chemically defined media. The HY-CDM media were composed of chemically defined components only. Each HY-CDM medium further included a growth factor. HY-CDM media used in Examples 1, 3, and 4 were free of an animal derived lipid mixture, and HY-CDM media used in Example 2 were supplemented with cod liver oil.\n2. Cell suspension culture: The cell line was inoculated at a density of 4×10^5 cells/ml and cultured in an Erlenmeyer flask with a 30 ml/125 ml working volume on an orbital shaker at 120 rpm under humidified conditions at 37° C. and 5% CO2. […] The subcultured cells were evaluated.\n(§2) 3. Density of live cells: The density of live cells was analyzed using a hemocytometer (Neubauer improved bright-line, Marienfeld, Germany), an inverted microscope (CK30, Olympus, Japan), and trypan blue dye exclusion.\nIn this example, the versatility of the effect of THF addition to induce cell growth was evaluated. […]"}, "CHO DG44 cell line [2]": {"tested_on": "CHO DG44 cell line", "test": "Subculture characteristics of CHO DG44 in HY-CDM medium supplemented with THF", "details": "1.6 mg/L THF, HY-CDM with cod liver oil", "text": "as §1\n(§3) 2. Cell suspension culture: The cell line was inoculated at a density of 4×10^5 cells/ml and cultured in an Erlenmeyer flask with a 30 ml/125 ml working volume on an orbital shaker at 120 rpm under humidified conditions at 37° C. and 5% CO2. Before inoculation, the cells were centrifuged at 1,000 rpm (×162 g) for 5 min, the supernatant was discarded, and the remaining cells were dispersed into single cells in the heated medium. The cells were passaged three times to minimize the influence of the remaining medium under the experimental conditions. The subcultured cells were evaluated.\nas §2\nA CHO DG44 cell line frozen-stored in an HY-CDM medium supplemented with 1.6 mg/L THF was thawed and subcultured every 2 days. On day 2 after the third passage, a cell density of 21.9±2.2×10^5 cells/ml and a doubling time of 20.3±1.3 h were observed, which were about 28% higher and about 20% more rapid than those of the control (17.1±3.4×10^5 cells/ml and 25.3±3.7 h), respectively (Table 2). The HY-CDM medium included a commercial lipid mixture containing cod liver oil as an animal derived component."}, "CHO DG44 cell line [3]": {"tested_on": "CHO DG44 cell line", "test": "Effective concentration range of THF: suspension growth of CHO DG44 in HY-CDM media", "details": "HY-CDM", "text": "as §1, §3, §2\nIn this example, the effective concentration range of THF inducing the suspension growth of the CHO DG44 cell line in the HY-CDM media was evaluated with varying amounts of THF.\nTo this end, the CHO DG44 cell line was passaged three time at a THF concentration of 0-480 mg/L, and their maximum cell densities and doubling times were measured."}, "[4]": {"details": "after the third passage, subcultured every 2 days"}}}
{"substance": "tetrahydrofolate [THF]", "values": [{"measurement": "Effect on cell density and growth rate", "setting": "CHO DG44 cell line [1]", "value": "increased the cell density and growth rate"}, {"measurement": "Cell density higher than control", "setting": "CHO DG44 cell line [2]; after the third passage", "value": "about 28%"}, {"measurement": "Doubling time more rapid than control", "setting": "CHO DG44 cell line [2]; after the third passage", "value": "about 20%"}, {"measurement": "Cell density on day 2", "setting": "CHO DG44 cell line [2]; [4]", "value": "21.9±2.2 ×10^5 cells/ml"}, {"measurement": "Doubling time", "setting": "CHO DG44 cell line [2]; [4]", "value": "20.3 ± 1.3", "unit": "h"}, {"measurement": "Density of live cells on day 2 after culture", "setting": "CHO DG44 cell line [2]; number of subcultures 3", "value": "19.2 ×10^5 cells/ml"}, {"measurement": "Doubling time", "setting": "CHO DG44 cell line [2]; number of subcultures 3", "value": 21.6, "unit": "h"}, {"measurement": "Density of live cells on day 2 after culture", "setting": "CHO DG44 cell line [2]; number of subcultures 4", "value": "22.3 ×10^5 cells/ml"}, {"measurement": "Doubling time", "setting": "CHO DG44 cell line [2]; number of subcultures 4", "value": 21.1, "unit": "h"}, {"measurement": "Density of live cells on day 2 after culture", "setting": "CHO DG44 cell line [2]; number of subcultures 5", "value": "19.1 ×10^5 cells/ml"}, {"measurement": "Doubling time", "setting": "CHO DG44 cell line [2]; number of subcultures 5", "value": 18.8, "unit": "h"}, {"measurement": "Density of live cells on day 2 after culture", "setting": "CHO DG44 cell line [2]; number of subcultures 6", "value": "23.3 ×10^5 cells/ml"}, {"measurement": "Doubling time", "setting": "CHO DG44 cell line [2]; number of subcultures 6", "value": 20.2, "unit": "h"}, {"measurement": "Density of live cells on day 2 after culture", "setting": "CHO DG44 cell line [2]; number of subcultures 7", "value": "23.5 ×10^5 cells/ml"}, {"measurement": "Doubling time", "setting": "CHO DG44 cell line [2]; number of subcultures 7", "value": 21.3, "unit": "h"}, {"measurement": "Density of live cells on day 2 after culture", "setting": "CHO DG44 cell line [2]; number of subcultures 8", "value": "24.1 ×10^5 cells/ml"}, {"measurement": "Doubling time", "setting": "CHO DG44 cell line [2]; number of subcultures 8", "value": 18.6, "unit": "h"}, {"measurement": "Doubling time, Average", "setting": "CHO DG44 cell line [3]; THF 0.0016 mg/L", "value": 24.7, "unit": "h"}, {"measurement": "Doubling time, Passage 1", "setting": "CHO DG44 cell line [3]; THF 0.0016 mg/L", "value": 26.8, "unit": "h"}, {"measurement": "Doubling time, Passage 2", "setting": "CHO DG44 cell line [3]; THF 0.0016 mg/L", "value": 27.2, "unit": "h"}, {"measurement": "Doubling time, Passage 3", "setting": "CHO DG44 cell line [3]; THF 0.0016 mg/L", "value": 20.3, "unit": "h"}, {"measurement": "Maximum cell density, Average", "setting": "CHO DG44 cell line [3]; THF 0.0016 mg/L", "value": "18.9 ×10^5 cells/ml"}, {"measurement": "Maximum cell density, Passage 1", "setting": "CHO DG44 cell line [3]; THF 0.0016 mg/L", "value": "19.8 ×10^5 cells/ml"}, {"measurement": "Maximum cell density, Passage 2", "setting": "CHO DG44 cell line [3]; THF 0.0016 mg/L", "value": "18.2 ×10^5 cells/ml"}, {"measurement": "Maximum cell density, Passage 3", "setting": "CHO DG44 cell line [3]; THF 0.0016 mg/L", "value": "18.8 ×10^5 cells/ml"}, {"measurement": "Doubling time, Average", "setting": "CHO DG44 cell line [3]; THF 0.0031 mg/L", "value": 24.9, "unit": "h"}, {"measurement": "Doubling time, Passage 1", "setting": "CHO DG44 cell line [3]; THF 0.0031 mg/L", "value": 27.1, "unit": "h"}, {"measurement": "Doubling time, Passage 2", "setting": "CHO DG44 cell line [3]; THF 0.0031 mg/L", "value": 27.1, "unit": "h"}, {"measurement": "Doubling time, Passage 3", "setting": "CHO DG44 cell line [3]; THF 0.0031 mg/L", "value": 20.6, "unit": "h"}, {"measurement": "Maximum cell density, Average", "setting": "CHO DG44 cell line [3]; THF 0.0031 mg/L", "value": "19.8 ×10^5 cells/ml"}, {"measurement": "Maximum cell density, Passage 1", "setting": "CHO DG44 cell line [3]; THF 0.0031 mg/L", "value": "20.6 ×10^5 cells/ml"}, {"measurement": "Maximum cell density, Passage 2", "setting": "CHO DG44 cell line [3]; THF 0.0031 mg/L", "value": "18.2 ×10^5 cells/ml"}, {"measurement": "Maximum cell density, Passage 3", "setting": "CHO DG44 cell line [3]; THF 0.0031 mg/L", "value": "20.5 ×10^5 cells/ml"}, {"measurement": "Doubling time, Average", "setting": "CHO DG44 cell line [3]; THF 0.0063 mg/L", "value": 23.6, "unit": "h"}, {"measurement": "Doubling time, Passage 1", "setting": "CHO DG44 cell line [3]; THF 0.0063 mg/L", "value": 26.4, "unit": "h"}, {"measurement": "Doubling time, Passage 2", "setting": "CHO DG44 cell line [3]; THF 0.0063 mg/L", "value": 24.3, "unit": "h"}, {"measurement": "Doubling time, Passage 3", "setting": "CHO DG44 cell line [3]; THF 0.0063 mg/L", "value": 20.1, "unit": "h"}, {"measurement": "Maximum cell density, Average", "setting": "CHO DG44 cell line [3]; THF 0.0063 mg/L", "value": "21.3 ×10^5 cells/ml"}, {"measurement": "Maximum cell density, Passage 1", "setting": "CHO DG44 cell line [3]; THF 0.0063 mg/L", "value": "21.4 ×10^5 cells/ml"}, {"measurement": "Maximum cell density, Passage 2", "setting": "CHO DG44 cell line [3]; THF 0.0063 mg/L", "value": "21.2 ×10^5 cells/ml"}, {"measurement": "Maximum cell density, Passage 3", "setting": "CHO DG44 cell line [3]; THF 0.0063 mg/L", "value": "21.3 ×10^5 cells/ml"}, {"measurement": "Doubling time, Average", "setting": "CHO DG44 cell line [3]; THF 0.0125 mg/L", "value": 23.5, "unit": "h"}, {"measurement": "Doubling time, Passage 1", "setting": "CHO DG44 cell line [3]; THF 0.0125 mg/L", "value": 24.6, "unit": "h"}, {"measurement": "Doubling time, Passage 2", "setting": "CHO DG44 cell line [3]; THF 0.0125 mg/L", "value": 25.5, "unit": "h"}, {"measurement": "Doubling time, Passage 3", "setting": "CHO DG44 cell line [3]; THF 0.0125 mg/L", "value": 20.3, "unit": "h"}, {"measurement": "Maximum cell density, Average", "setting": "CHO DG44 cell line [3]; THF 0.0125 mg/L", "value": "21.5 ×10^5 cells/ml"}, {"measurement": "Maximum cell density, Passage 1", "setting": "CHO DG44 cell line [3]; THF 0.0125 mg/L", "value": "23.6 ×10^5 cells/ml"}, {"measurement": "Maximum cell density, Passage 2", "setting": "CHO DG44 cell line [3]; THF 0.0125 mg/L", "value": "18.8 ×10^5 cells/ml"}, {"measurement": "Maximum cell density, Passage 3", "setting": "CHO DG44 cell line [3]; THF 0.0125 mg/L", "value": "22.0 ×10^5 cells/ml"}, {"measurement": "Doubling time, Average", "setting": "CHO DG44 cell line [3]; THF 0.0250 mg/L", "value": 22.5, "unit": "h"}, {"measurement": "Doubling time, Passage 1", "setting": "CHO DG44 cell line [3]; THF 0.0250 mg/L", "value": 25.8, "unit": "h"}, {"measurement": "Doubling time, Passage 2", "setting": "CHO DG44 cell line [3]; THF 0.0250 mg/L", "value": 23.2, "unit": "h"}, {"measurement": "Doubling time, Passage 3", "setting": "CHO DG44 cell line [3]; THF 0.0250 mg/L", "value": 18.6, "unit": "h"}, {"measurement": "Maximum cell density, Average", "setting": "CHO DG44 cell line [3]; THF 0.0250 mg/L", "value": "20.5 ×10^5 cells/ml"}, {"measurement": "Maximum cell density, Passage 1", "setting": "CHO DG44 cell line [3]; THF 0.0250 mg/L", "value": "22.4 ×10^5 cells/ml"}, {"measurement": "Maximum cell density, Passage 2", "setting": "CHO DG44 cell line [3]; THF 0.0250 mg/L", "value": "18.0 ×10^5 cells/ml"}, {"measurement": "Maximum cell density, Passage 3", "setting": "CHO DG44 cell line [3]; THF 0.0250 mg/L", "value": "21.0 ×10^5 cells/ml"}, {"measurement": "Doubling time, Average", "setting": "CHO DG44 cell line [3]; THF 0.0500 mg/L", "value": 20.9, "unit": "h"}, {"measurement": "Doubling time, Passage 1", "setting": "CHO DG44 cell line [3]; THF 0.0500 mg/L", "value": 22.8, "unit": "h"}, {"measurement": "Doubling time, Passage 2", "setting": "CHO DG44 cell line [3]; THF 0.0500 mg/L", "value": 21.7, "unit": "h"}, {"measurement": "Doubling time, Passage 3", "setting": "CHO DG44 cell line [3]; THF 0.0500 mg/L", "value": 18.2, "unit": "h"}, {"measurement": "Maximum cell density, Average", "setting": "CHO DG44 cell line [3]; THF 0.0500 mg/L", "value": "20.5 ×10^5 cells/ml"}, {"measurement": "Maximum cell density, Passage 1", "setting": "CHO DG44 cell line [3]; THF 0.0500 mg/L", "value": "22.0 ×10^5 cells/ml"}, {"measurement": "Maximum cell density, Passage 2", "setting": "CHO DG44 cell line [3]; THF 0.0500 mg/L", "value": "18.5 ×10^5 cells/ml"}, {"measurement": "Maximum cell density, Passage 3", "setting": "CHO DG44 cell line [3]; THF 0.0500 mg/L", "value": "21.0 ×10^5 cells/ml"}, {"measurement": "Doubling time, Average", "setting": "CHO DG44 cell line [3]; THF 0.1000 mg/L", "value": 21.2, "unit": "h"}, {"measurement": "Doubling time, Passage 1", "setting": "CHO DG44 cell line [3]; THF 0.1000 mg/L", "value": 22.7, "unit": "h"}]}
